{
  "source": "paper PMC4428838",
  "about": "“Optimization of Invasion-Specific Effects of Betulin Derivatives on Prostate Cancer Cells through Lead Development” (PLoS ONE, 2015)",
  "key": {"in vitro": {"experiment": "in vitro", "type": "cell-based", "conditions": "human", "method": "To rule out that cytotoxic and antimitotic effects were misinterpreted as anti-invasive, we tested compounds 4, 5, 6, 19 and 20 for inhibition of proliferation and induction of cell death in a 2D monolayer culture (summarized in Fig 6). […] LNCaP cells were more sensitive, with growth inhibition/cytotoxicity starting at 3 μM. The effects on non-transformed, apoptosis-sensitive Ep156T cells were strongest. Here, cytotoxic effects were typically observed already at 0.3–1 μM. […] We further calculated EC50 values for proliferation, apoptosis and cell death for each compound, using the PerkinElmer Harmony software (method validation shown in S7 Fig). The only assay that produced results consistent with those of the betulin derivatives tested in the 2D cell culture model was the proliferation assay (Table 1).\nFig 6 Cytotoxicity tests performed in 2D monolayer culture. A) Cell proliferation/cell number, B) programmed cell death (apoptosis), and C) number of dead cells were assessed by conventional assays, combined with high-content microscopy (Operetta). […] Proliferation was measured as the total number of nuclei (= cells), apoptosis as ratio of caspase-3 positive versus all cells, and cell death as ethidium homodimer-2 positive nuclei versus all cells.\nCells were transferred into CellCarrier 384-well plates (PerkinElmer, Waltham, MA, USA) at a density of 1250 cells/well, using Multidrop dispenser (ThermoFisher Scientific, Waltham, MA, USA). After overnight incubation at 37°C experimental, compounds were added with an ATS Acoustic Transfer System (EDC Biosystems, Fremont, CA, USA). For Ep156T cells the protocol was done in reverse with compounds dispensed before seeding of cells. Fluorescent markers were dispensed in culture medium using ATS system after 72-h compound exposure. Nuclei were stained with cell-permeable Hoechst 33342 (Molecular Probes, Eugene, OR, USA), dead cells with ethidium homodimer-2 (Invitrogen, Carlsbad, CA, USA) and apoptotic cells with NucView caspase-3 detection reagent (Essen Bioscience, Ann Arbor, MI, USA). Cells were imaged with Operetta high-content imager (PerkinElmer, Waltham, MA, USA). Proliferation was measured from the number of nuclei (cells), cell death and apoptosis from positive cells/total cells ratio using Harmony image analysis software (PerkinElmer, Waltham, MA, USA). EC50 values were also assessed with the Harmony software."}, "[1]": {"system": "phosphorylation levels of 43 kinases in PC-3 cells", "experiment": "Phospho-kinase antibody array on lysates of 3D cultures", "type": "cell-based, human", "conditions": "for p70 S6 kinase (T389), p53 (S392) and PYK2 (Y402) phosphorylation: 6-d exposure; for phosphorylation levels of STAT3 (Y727), c-Jun (S63), eNOS (S1177) and PLC-γ1 (Y783): both short (4 h, 1 μM) and long-term (6 d, 300 nM) exposures", "method": "In order to elucidate possible mechanism of action for our betulin derivatives, we used a phospho-kinase array that quantitatively detects the phosphorylation levels of 43 kinases in cell lysates (Fig 7). Lysates were extracted from 3D cell cultures of PC-3 cells, and exposed to betulin-derived compounds for short (4 hours) or long-term (6 days) periods. For these studies, we selected the two representative derivatives 5 and 20 as the most specific, least cytotoxic inhibitors of cell invasion. […] The kinase arrays were also quantified by image densitometry (Fig 7A). […] The reduction of AKT activity by both compounds was validated by western blotting, using an independent, p-AKT specific antibody (Fig 7B). The short treatments caused only modest changes with a maximum reduction of protein phosphorylation by 2-fold (20: GSK-3α/β S21/S9 and STAT3 Y705). Phosphorylation levels of only three kinases were altered more than 2-fold in the long-term exposures, namely AKT (T308), p53 (S46) and eNOS (S1177), caused by nanomolar concentrations of compound 5. Compound 20 had much less dramatic effects on kinase phosphorylation when compared to compound 5, despite its generally more pronounced anti-invasive effects.\nFig 7 Mechanisms of action. PC-3 spheroids were exposed to two representative betulin derivatives, 5 and 20, for 4 h (at 1 μM) and 6 days (at 0.3 μM). A) Computational quantification of signal intensities from the kinase arrays, aligned by fold changes observed (left to right). B) Western blot of total and phospho-Akt (S473) shown for both short and long-term exposure to 20 and 5.\nIn order to generate sufficient protein material for antibody arrays, we resorted to 6-well Millicell hanging cell culture inserts (Merck Millipore, Billerica, MA, USA). Membranes were pre-coated with 4 mg/mL GFR Matrigel (Corning Inc., New York, NY, USA) and incubated at 37°C for 1 h to prevent attachment to the membrane. GFR Matrigel (2 mg/mL) was prepared and 100,000 cells were added in. The Matrigel-cell suspension was transferred into the coated wells and incubated overnight at 37°C. Fresh medium was added the following day under the insert. After four days in culture fresh media with compounds 20 and 5 at 0.3 μM concentration compounds were added for six days long-term exposure. On day 10, the same compounds were added in fresh medium at 1 μM concentration for the 4h short-term exposure. DMSO was used as a negative control in both exposures. Cells were harvested by first washing the inserts with ice cold PBS, then incubating the isolated ECM slabs in ice cold 5 mM ethylenediaminetetraacetic acid (EDTA) in PBS on ice on a table top rocker for 45 min to dissolve the ECM, and finally by washing the cell pellets once with PBS before lysing them in Lysis Buffer 6 (R&D Systems, Minneapolis, MN, USA). The antibody arrays used were from the Human Phospho-Kinase Array Kit (R&D Systems, Minneapolis, MN, USA). The samples were assayed according to manufacturer’s instructions. Exposed radiograms were scanned with a tabletop scanner and spot intensities quantified using Array-Pro Analyzer (v4.5.1.73) software."}},
  "data": [
    {"smiles": "C=C(C)[C@@H]1CC[C@]2(C(=O)O)CC[C@]3(C)C(CCC4[C@@]5(C)Cc6cnoc6C(C)(C)C5CC[C@]43C)C12", "note": "(stereo partly drawn) [Compound 5]", "values": [
      {"measurement": "EC50 at 72 h", "setting": "in vitro", "value": 10, "unit": "µM"},
      {"measurement": "AMPKα1 (T174) phosphorylation", "setting": "[1]", "value": "increased"},
      {"measurement": "phosphorylation of p53 sites S46 and S392", "setting": "[1]", "value": "consistently decreased"},
      {"measurement": "p70 S6 kinase (T389), p53 (S392) and PYK2 (Y402) phosphorylation", "setting": "[1]; 300 nM", "value": "reduced"},
      {"measurement": "phosphorylation levels of STAT3 (Y727), c-Jun (S63), eNOS (S1177) and PLC-γ1 (Y783)", "setting": "[1]", "value": "clearly decreased"},
      {"measurement": "alteration of phosphorylation levels of AKT (T308), p53 (S46) and eNOS (S1177)", "setting": "[1]; long-term exposures, 6 d, nanomolar concentrations", "value": "more than 2 fold"},
      {"measurement": "Akt (T308) phosphorylation", "setting": "[1]; long-term treatment, 6 d, 300 nM", "value": "abolished almost entirely"},
      {"measurement": "p53 (S15) phosphorylation", "setting": "[1]; short-term exposure, 4 h, 1 μM", "value": "reduced"},
      {"measurement": "specific changes in kinase activity", "setting": "[1]; short-term exposure, 4 h, 1 μM", "value": "did not cause any specific changes in kinase activity"}
    ]},
    {"smiles": "C=C(C)[C@@H]1CC[C@]2(C(=O)O)CC[C@]3(C)C(CCC4[C@@]5(C)Cc6ncccc6C(C)(C)C5CC[C@]43C)C12", "note": "(stereo partly drawn) [Compound 20]", "values": [
      {"measurement": "EC50 at 72 h", "setting": "in vitro", "value": 67, "unit": "µM"},
      {"measurement": "AMPKα1 (T174) phosphorylation", "setting": "[1]", "value": "increased"},
      {"measurement": "phosphorylation of mTOR (S2448), Fyn (Y420) and Src (Y419)", "setting": "[1]", "value": "increased"},
      {"measurement": "p70 S6 kinase (T389), p53 (S392) and PYK2 (Y402) phosphorylation", "setting": "[1]; 300 nM", "value": "reduced"},
      {"measurement": "Akt (S473) phosphorylation", "setting": "[1]; 4 h at 1 μM vs 6 d at 300 nM", "value": "only inhibited by the 6-d exposure"},
      {"measurement": "phosphorylation levels of STAT3 (Y727), c-Jun (S63), eNOS (S1177) and PLC-γ1 (Y783)", "setting": "[1]", "value": "clearly decreased"},
      {"measurement": "phosphorylation of Hck (Y411), pan-JNK, GSK-3α/β (S21/S9), STAT3 (Y705) and WNK1 (T60) sites", "setting": "[1]; compound-specific effects", "value": "differential phosphorylation"},
      {"measurement": "maximum reduction of protein phosphorylation (GSK-3α/β S21/S9 and STAT3 Y705)", "setting": "[1]; short treatments, 4 h, 1 μM", "value": 2, "unit": "fold"},
      {"measurement": "p53 (S15) phosphorylation", "setting": "[1]; short-term exposure, 4 h, 1 μM", "value": "reduced"}
    ]}
  ]
}
